Converted amounts (≈) assume the structure as drawn. Where two headings read alike, the source gives them in different places.
Columns and labels:
[1] = Solubility measurement (DMSO solution method), McIlvaine buffer pH 4.5 or 6.8; assay type: physicochemical; details: aqueous buffer, kinetic from dmso stock, DMSO stock diluted to 250 μM, 24 h shaking at ambient temperature
Procedure, shortened: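 Filtrate concentration by LC-UV, calibrated to a known-concentration reference dissolved completely in acetonitrile/water (1:1). Samples came from 250 µM final dilutions of DMSO stock in pH 4.5 or 6.8 McIlvaine buffer, shaken 24 h at ambient temperature, then filtered.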

NCI-H358 cells = test: NCI-H358 CTG proliferation assay (120 h) (NSCLC, G12C); assay type: cell-based, human; details: Homo sapiens
Procedure, shortened: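 IC50 values derive from four-parameter nonlinear regression of CellTiter-Glo viability (RLU relative to DMSO wells) after 120 h of exposure. Cells were plated in RPMI-1640 + 10% FCS at 2000 per well (assay 1) or 200 per well (assay 2). Untreated cells were measured at compound addition as T0.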

SAS cells = test: SAS CTG proliferation assay (120 h) (HNSCC, wt amplified); assay type: cell-based
Procedure, shortened: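 Viability measured by CellTiter-Glo luminescence, normalized to DMSO wells, after 120 h compound treatment of SAS cells. Cells grown in DMEM:F12 plus 10% FCS at 300 cells per well, dosed the day after seeding. Four-parameter fit gives IC50.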

[2] = Plasma protein binding assay (PPB), equilibrium dialysis, 10% FCS in PBS; assay type: in vitro ADME; details: bovine, read-out: PPB 10% FCS (% fu)
Procedure, shortened: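 Test compound (1-10 μmol/L) in 10% FCS in PBS was dialysed for 3-5 h at 37° C versus PBS ± dextran across a semipermeable membrane. LC-MS of both compartments after protein precipitation gave Cserum and Cbuffer, from which the unbound fraction fu was derived.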

AsPC-1 cells = test: AsPC-1 CTG proliferation assay (120 h) (pancreatic cancer, G12D); assay type: cell-based; details: Homo sapiens, ASPC1
Procedure, shortened: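 CellTiter-Glo luminescence, normalised to DMSO wells, measured viability after 120 h compound exposure. Cells were AsPC-1 pancreatic cancer (G12D) plated at 2000 per well in RPMI/10% FCS the day before dosing. IC50 derived by four-parameter regression.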

[3] = McIlvaine buffer pH 4.5, read-out: solubility pH 4.5
[4] = McIlvaine buffer pH 6.8, read-out: solubility pH 6.8
[5] = assay 2, CTG, read-out: H358 (assay 2) IC50
[6] = assay 1, CTG, read-out: H358 (assay 1) IC50

Structure (SMILES) | solubility at 24 h [1, 3] | solubility at 24 h [1, 4] | IC50 (NCI-H358 cells; [5]) | IC50 (SAS cells) | fraction unbound [2] | IC50 (AsPC-1 cells) | IC50 (NCI-H358 cells; [6])
C[C@H](Oc1cc(-n2cnc(C(=O)N(C)C)c2)nc(-c2noc3c2CCC[C@@]32CCCc3sc(N)c(C#N)c32)n1)[C@@H]1CCCN1C [II-126] | 123 µg/mL (≈ 196 µM) | 104 µg/mL (≈ 166 µM) | 1680 nM | 189 nM | 0.38 | 10200 nM | 
C[C@H](Oc1cc(-c2ccn([C@H]3CCOC3)n2)nc(-c2noc3c2CCC[C@@]32CCCc3sc(N)c(C#N)c32)n1)[C@@H]1CCCN1C [II-127] | > 127 µg/mL | 39 µg/mL (≈ 62.2 µM) | 400 nM | 18 nM | 0.08 | 2760 nM | 
C[C@H](Oc1cc(-c2ccn(Cc3ncco3)n2)nc(-c2noc3c2CCC[C@@]32CCCc3sc(N)c(C#N)c32)n1)[C@@H]1CCCN1C [II-128] | > 130 µg/mL | 42 µg/mL (≈ 65.9 µM) | 417 nM | 46 nM | 0.06 | 2100 nM | 
C[C@H](Oc1cc(-c2ccn(C[C@H]3CCOC3)n2)nc(-c2noc3c2CCC[C@@]32CCCc3sc(N)c(C#N)c32)n1)[C@@H]1CCCN1C [II-129] | > 130 µg/mL | 15 µg/mL (≈ 23.4 µM) | 295 nM | 18 nM | 0.23 | 2080 nM | 
C[C@H](Oc1cc(-n2ccc(-c3cnccn3)n2)nc(-c2noc3c2CCC[C@@]32CCCc3sc(N)c(C#N)c32)n1)[C@@H]1CCCN1C [II-130] | < 1 µg/mL | < 1 µg/mL | 28 nM | 176 nM | 0.03 | 1080 nM | 25 nM
C[C@H](Oc1cc(-n2cc(C(=O)N(C)C)nn2)nc(-c2noc3c2CCC[C@@]32CCCc3sc(N)c(C#N)c32)n1)[C@@H]1CCCN1C [II-132] | 117 µg/mL (≈ 186 µM) | 100 µg/mL (≈ 159 µM) | 324 nM | 319 nM | 0.31 | 5110 nM | 
C[C@H](Oc1cc(-c2cccc(C(N)=O)c2)nc(-c2noc3c2CCC[C@@]32CCCc3sc(N)c(C#N)c32)n1)[C@@H]1CCCN1C [II-133] | 3 µg/mL (≈ 4.92 µM) | < 1 µg/mL | 9 nM | 202 nM | 0.04 | 2700 nM | 74 nM
C[C@H](Oc1cc(N2CCOC2=O)nc(-c2noc3c2CCC[C@@]32CCCc3sc(N)c(C#N)c32)n1)[C@@H]1CCCN1C [II-143] | > 123 µg/mL | 91 µg/mL (≈ 158 µM) |  | 48 nM | 0.18 | 1510 nM | 25 nM
C[C@H](Oc1cc(N2CCNC3(COC3)C2)nc(-c2noc3c2CCC[C@@]32CCCc3sc(N)c(C#N)c32)n1)[C@@H]1C[C@@H](F)CN1C [II-150] | > 149 µg/mL | 57 µg/mL (≈ 89.8 µM) | 115 nM | 91 nM | 0.13 | 27 nM | 
CO[C@@H]1C[C@@H]([C@H](C)Oc2cc(N3CCN(C)C4(CC4)C3)nc(-c3noc4c3CCC[C@@]43CCCc4sc(N)c(C#N)c43)n2)N(C)C1 [II-152] | > 132 µg/mL | 61 µg/mL (≈ 94.6 µM) | 926 nM | 4230 nM | 0.08 | 526 nM | 
CO[C@@H]1C[C@@H]([C@H](C)Oc2cc(N3CCN(C)C4(COC4)C3)nc(-c3noc4c3CCC[C@@]43CCCc4sc(N)c(C#N)c43)n2)N(C)C1 [II-153] | > 135 µg/mL | 103 µg/mL (≈ 156 µM) | 2850 nM | 199 nM | 0.14 | 577 nM | 
C[C@H](Oc1cc(-n2cc3c(n2)CNC3)nc(-c2noc3c2CCC[C@@]32CCCc3sc(N)c(C#N)c32)n1)[C@@H]1C[C@@H](F)CN1C [II-154] | > 144 µg/mL | 17 µg/mL (≈ 27.6 µM) | 374 nM | 747 nM | 0.1 | 1010 nM | 
C[C@H](Oc1nc(-c2noc3c2CCC[C@@]32CCCc3sc(N)c(C#N)c32)nc(N2CCNC3(CC3)C2)c1F)[C@@H]1C[C@@H](F)CN1C [II-155] | > 153 µg/mL | 3 µg/mL (≈ 4.71 µM) | 77 nM | 471 nM | 0.04 | 11 nM | 
C[C@H](Oc1nc(-c2noc3c2CCC[C@@]32CCCc3sc(N)c(C#N)c32)nc(N2CCNC3(CC3)C2)c1Cl)[C@@H]1C[C@@H](F)CN1C [II-156] | > 142 µg/mL | < 1 µg/mL | 230 nM | 440 nM | 0.04 | 86 nM | 
C[C@H](Oc1nc(-c2noc3c2CCC[C@@]32CCCc3sc(N)c(C#N)c32)nc(N2C[C@H](C)NC3(CC3)C2)c1F)[C@@H]1C[C@@H](F)CN1C [II-157] | > 147 µg/mL | < 1 µg/mL | 151 nM | 1190 nM | 0.03 | 129 nM | 
C[C@@H]1CN(c2nc(-c3noc4c3CCC[C@@]43CCCc4sc(N)c(C#N)c43)nc(O[C@@H](C)[C@@H]3C[C@@H](F)CN3C)c2F)CC2(CC2)N1 [II-158] | > 150 µg/mL | < 1 µg/mL | 58 nM | 585 nM | 0.04 | 256 nM | 
COc1c(O[C@@H](C)[C@@H]2CCCN2C)nc(-c2noc3c2CCC[C@@]32CCCc3sc(N)c(C#N)c32)nc1-n1ccc(C(N)=O)n1 [II-159] | 125 µg/mL (≈ 198 µM) | 125 µg/mL (≈ 198 µM) | 31 nM | 70 nM | 0.21 | 1890 nM | 
C[C@H](Oc1cc(C2=CCNCC2)nc(-c2noc3c2CCC[C@@]32CCCc3sc(N)c(C#N)c32)n1)[C@@H]1CCCN1C [II-164] | > 164 µg/mL | > 137 µg/mL | 40 nM | 1500 nM | 0.54 | 483 nM | 
C[C@H](Oc1cc(N2CCNC3(CC3)C2)nc(-c2noc3c2CCC[C@@]32CCCc3sc(N)c(C#N)c32)n1)[C@@H]1C[C@@H](F)CN1C [II-165] | > 142 µg/mL | 49 µg/mL (≈ 79.2 µM) | 166 nM | 437 nM | 0.16 | 25 nM | 
CC(C)N1CCCN(c2cc(-c3ccn(C)n3)nc(-c3noc4c3CCC[C@@]43CCCc4sc(N)c(C#N)c43)n2)[C@@H](C)C1 [II-170] | 118 µg/mL (≈ 197 µM) | 24 µg/mL (≈ 40.1 µM) | 623 nM | 1050 nM | 0.32 | 3590 nM | 
C[C@H](Oc1cc(-n2cc3c(n2)CN(C)C3)nc(-c2noc3c2CCC[C@@]32CCCc3sc(N)c(C#N)c32)n1)[C@@H]1CCCN1C [II-174] | > 149 µg/mL | 115 µg/mL (≈ 188 µM) | 112 nM | 248 nM | 0.17 | 103 nM | 
C[C@H](Oc1nc(-c2noc3c2CCC[C@@]32CCCc3sc(N)c(C#N)c32)nc(N2CCN(C)C3(CC3)C2)c1Cl)[C@@H]1C[C@@H](F)CN1C [II-176] | > 140 µg/mL | < 1 µg/mL | 1640 nM | 4940 nM | 0.01 | 851 nM | 
CC(=O)N1CCN(c2cc(O[C@@H](C)[C@@H]3CCCN3C)nc(-c3noc4c3CCC[C@@]43CCCc4sc(N)c(C#N)c43)n2)CC12CC2 [II-178] | 127 µg/mL (≈ 198 µM) | 110 µg/mL (≈ 171 µM) | 129 nM | 2570 nM | 0.46 | 814 nM | 
CC(C)NC(=O)Cc1ccn(-c2cc(O[C@@H](C)[C@@H]3CCCN3C)nc(-c3noc4c3CCC[C@@]43CCCc4sc(N)c(C#N)c43)n2)n1 [II-182] | > 148 µg/mL | 86 µg/mL (≈ 131 µM) | 3 nM | 32 nM | 0.13 | 188 nM | 
CO[C@H]1CCN(C)[C@@H]1[C@H](C)Oc1cc(N2CCNC3(CC3)C2)nc(-c2noc3c2CCC[C@@]32CCCc3sc(N)c(C#N)c32)n1 [II-184] | > 158 µg/mL | > 147 µg/mL | 95 nM | 882 nM | 0.1 | 8 nM | 
CCN1CCN(c2cc(O[C@@H](C)[C@@H]3C[C@@H](F)CN3C)nc(-c3noc4c3CCC[C@@]43CCCc4sc(N)c(C#N)c43)n2)CC12CC2 [II-185] | > 147 µg/mL | 8 µg/mL (≈ 12.4 µM) | 510 nM | 2420 nM | 0.02 | 190 nM | 
CO[C@H]1CCN(C)[C@@H]1[C@H](C)Oc1cc(N2CCN(C)C3(CC3)C2)nc(-c2noc3c2CCC[C@@]32CCCc3sc(N)c(C#N)c32)n1 [II-186] | > 140 µg/mL | 22 µg/mL (≈ 34.1 µM) | 273 nM | 532 nM | 0.08 | 38 nM | 

From patent US20240174690A1, “ANNULATED 2-AMINO-3-CYANO THIOPHENES AND DERIVATIVES FOR THE TREATMENT OF CANCER” (BOEHRINGER INGELHEIM INTERNATIONAL GMBH, priority 2021, published 2024)
